From US10946012B2, “Methods for inducing tumor regression, inhibiting tumor growth, and inducing apoptosis in breast tumors with geranylgeranyltransferase I inhibitors” (H. Lee Moffitt Cancer Center and Research Institute, Inc., priority 2009, dated 2021)

Experiments:
[1] = test system: p27 null MEFs; test: Trypan Blue exclusion assay in p27 null MEFs; type: cell-based, mouse; conditions: 50 μM, 72 h
Method: (§1) Human MDA-MB-468 and MDA-MB-231 breast cancer cells and murine NIH 3T3 cells were obtained from the ATCC and cultured in DMEM medium. Human SK-Br3 and BT-474 breast cancer cells (ATCC) were cultured in McCoy's 5a medium and Hybri-Care medium, respectively. Mouse embryonic fibroblast (MEF) cells from p27 wild-type and p27 null mice were grown in DMEM. All media were supplemented with 10% fetal calf serum, 10 units/ml penicillin, and 10 μg/ml streptomycin. Subconfluent cells were treated with different concentrations of GGTI, FTI or DMSO vehicle for specific time periods. After treatment, cells were harvested by trypsinization.
(§2) Adherent cells were harvested by trypsinization and diluted with 0.4% Trypan Blue dye and counted on a hemacytometer. Cells excluding the dye were scored as live cells, whereas cells absorbing the dye were scored as dead cells. Cell proliferation was determined by dividing the number of live cells in the treated sample by the number of live cells in the control, and the degree of cell death was expressed as percentage of dead cells of the total cell number.

[2] = test system: p27; test: Immunofluorescence of p27 in MDA-MB-468 cells; type: cell-based, human; conditions: 50 μM, 48 h
Method: MDA-MB-468 cells were plated on a glass coverslip and treated with 50 μM GGTI-2417 or DMSO as a control for 48 h. Medium was aspirated and the cells were washed twice with ice-cold sterile DPBS solution (Invitrogen, Carlsbad, Calif.), fixed with 4% paraformaldehyde at room temperature for 15 min, and then treated with 1% Nonidet P-40 for 30 min at room temperature. After blocking with 5% bovine serum albumin for 30 min at room temperature, cells were incubated with anti-p27 antibody (1:500) at room temperature for 1 h. After washing three times with DPBS solution, cells were incubated with FITC-conjugated secondary antibody (1:1000) for 1 h at room temperature. Cells were then washed three times with sterile DPBS solution, mounted using Vectashield mounting reagent (Vector Laboratories, Inc., Burlingame, Calif.) containing 4′,6′-diamidino-2-phenylindole (DAPI) for nuclear visualization, and analyzed using a Zeiss Axiovert Z-1 Imager microscope (Carl Zeiss, Oberkochen, Germany) at […]. Images were analyzed using ImagePro Plus 6.2 (Media Cybernetics, Bethesda, Md.).

[3] = test system: MDA-MB-231 breast cancer tumors; test: Anti-tumor activity in the nude mouse tumor xenograft model; type: in vivo, nude mice; conditions: 100 mg/kg daily i.p.
Method: Nude mice (nu/nu, Charles River, Wilmington, Mass.) were maintained in accordance with the Institutional Animal Care and Use Committee (IACUC) procedures and guidelines. MDA-MB-231 cells were harvested via trypsinization, pelleted at 805×g for 5 min, and re-suspended in a 50:50 mixture of sterile PBS and Matrigel (BD Biosciences) at 10×10^6 cells per 100 μl. A volume of 100 μl (˜10×10^6 cells) was injected orthotopically into the upper mammary fat pads of nude mice. The tumor xenografts were monitored by electronic caliper measurements and tumor volume (V) was calculated using the formula V=W^2L/2, where width (W) is […]. When the tumors reached ˜100 mm^3, the animals were randomized and injected intraperiteoneally daily with vehicle (70% DMSO), or 100 mg/kg GGTI-2417 or GGTI-2418, or every third day with GGTI-2418 (200 mg/kg. Tumors were measured every third day for 12-18 days.

[4] = test system: Rap1 geranylgeranylation; test: Rap1 geranylgeranylation in H-Ras transformed NIH 3T3 cells (Western blot); type: cell-based, murine; conditions: H-Ras/3T3 cells
Method: as §1
To prepare whole cell lysates, cells were trypsinized, washed with phosphate buffered saline (PBS) twice, and lysed in 30 mM Hepes, pH 7.5, 10 mM NaCl, 5 mM MgCl2, 25 mM NaF, 1 mM EGTA, 1% Triton-X-100, 10% glycerol, protease inhibitor cocktail, 2 mM PMSF, 2 mM Na3VO4, and 6.4 mg/ml p-nitrophenylphosphate. Lysates were cleared by centrifugation at 12,000×g for 15 min, and the supernatants were collected as whole cell extracts. The protein concentration was determined by the Bradford assay. […] Select bands were quantified using AlphaEaseFC densitometry software (AlphaInnotech, San Leandro, Calif.). […]

[5] = test system: MDA-MB-468 breast cancer cells; test: Trypan Blue exclusion assay (proliferation, cell death) in MDA-MB-468 cells; type: cell-based, human
Method: as §1
Pre-designed siRNA to p27 (Cat #118714) and the negative control (Cat #4611) were purchased from Ambion (Austin, Tex.). Twenty-four hours before transfection, MDA-MB-468 cells were plated onto twelve-well plates in fresh DMEM medium containing 10% FBS and no antibiotics. Transient transfection of siRNA was carried out using Oligofectamine reagent (Invitrogen, Carlsbad, Calif.), following the manufacturer's instructions. In brief, 5 nM of p27 siRNA or control siRNA were mixed with Opti-MEM medium (Invitrogen) in such a way so that the total volume went to 90 μl, and then complexed with a mixture of 2 μl of Oligofectamine and 8 μl Opti-MEM; the total volume of RNA:Oligofectamine complex was 100 μl. The RNA:Oligofectamine complex was then incubated for 20 min at room temperature before adding to the cells. Before transfection, the old medium was discarded, cells were washed once with fresh Opti-MEM and 400 μl of fresh Opti-MEM placed into each well before adding the RNA:Oligofectamine complex to each well. The final diluted volume on each well was 500 μl. After 8 h, 500 μl DMEM containing 30% FBS was added to each well and cells were further incubated for 40 h.
as §2

Compound: COC(=O)[C@H](CC(C)C)NC(=O)N1CCN(Cc2nc[nH]c2C)C(=O)[C@@H]1Cc1ccccc1 [GGTI-2417]
- inhibition of proliferation ([1]; MEFs lacking p27): 61.6±8.1%
- cell death ([1]; p27 null MEFs, basal 27.5±2.1%): did not increase the number of dead cells
- cytosolic p27 levels [2]: not affected significantly
- increase of nuclear levels of p27 [2]: 6 fold
- tumor growth inhibition [3]: 76%
- selectivity for inhibition of cellular GGTase I compared to FTase [4]: > 125 fold
- IC50 ([4]; 48 h, read-out: IC50, inhibition of Rap1 geranylgeranylation): 400 ± 100 nM
- tumor cell death in the presence of p27 siRNA ([5]; 5 nM p27 siRNA, 50 μM GGTI-2417 or 1 μM taxol): unable to induce tumor cell death
- tumor cell death ([5]; 50 μM, absence of p27 siRNA, vehicle 10.3%): 37.2%
- IC50 ([5]; MDA-MB-468, 48 h, read-out: IC50, inhibition of cell proliferation): ~4000 nM
